From US20250152496A1, “SKIN IMPROVING AGENT CONTAINING FERMENTED EXTRACT AS MAIN RAW MATERIAL” (priority 2022, published 2025)

Assays:
[1] = tested on: elastase derived from human skin fibroblasts (NHDF-Ad); experiment: elastase activity inhibition test (anti-wrinkle test); type: biochemical; settings: 50 nM; 37° C. for 2 hours
Procedure: Therefore, in this example, elastase activity was evaluated by measuring an amount of nitroaniline produced using elastase derived from human skin fibroblasts (NHDF-Ad), and using N-Succinyl-Ala-Ala-Ala-β-nitroanilide as a substrate. Based on the elastase activity, a skin dermis elasticity retention and aging function (an activity inhibition rate) of the test object of rice malt lactic acid bacterium fermentation liquid SW01 (hereinafter, SW01) was examined.
The elastase activity was set to 100% using, as a control, a reaction with only elastase derived from human skin fibroblasts (NHDF-Ad) and N-Succinyl-Ala-Ala-Ala-β-nitroanilide as a substrate. Reaction conditions in this experiment were 37° C. for 2 hours.

[2] = tested on: rat basophilic leukemia cell RBL-2H3; experiment: degranulation inhibition: β-hexosaminidase activity of antigen-stimulated RBL-2H3 cells; type: cell-based; settings: 50 µg/mL, positive control
Procedure: To determine an extent to which the test object inhibits degranulation, degranulation is assessed by measuring the activity of β-hexosaminidase, which is abundantly present in the granulocyte. Accordingly, the effect of the test object on allergic reaction is evaluated. It is known that rat basophilic leukemia cell RBL-2H3 releases the granulocyte containing histamine and the like to the outside of the cell when IgE bound to the cell surface is cross-linked with an antigen. This has been applied as an experimental system to exploratory research and the like as screening for substances having an anti-allergic action against type I allergy. In this example, the inhibition of degranulation is evaluated by stimulating RBL-2H3 cells with an antigen and measuring the activity of β-hexosaminidase (FIG. 4). […] Further, […] of quercetin was used as a positive control. […] By adding […] of the rice malt lactic acid bacterium fermentation liquid SW01, the activity of β-hexosaminidase was about 50%. […] Note that, the p value in FIG. 4 is p<0.01.

| SMILES | elastase inhibition by standard agent [1] | activity of β-hexosaminidase (control with sterilized water = 100%) [2] |
| --- | --- | --- |
| CC(C)C[C@H](NP(=O)(O)O[C@@H]1O[C@@H](C)[C@H](O)[C@@H](O)[C@H]1O)C(=O)N[C@@H](Cc1c[nH]c2ccccc12)C(=O)O [phosphoramidon] | show elastase inhibition |  |
| O=c1c(O)c(-c2ccc(O)c(O)c2)oc2cc(O)cc(O)c12 [quercetin] |  | about 40% |
